Measurements as given in article PMC10544029, “Design, Synthesis, and Application of Fluorescent Ligands Targeting the Intracellular Allosteric Binding Site of the CXC Chemokine Receptor 2” (Journal of Medicinal Chemistry, 2023).

Tests used:
[1] = Chemical stability on purification and isolation; format: physicochemical; settings: purification by normal and reverse-phase chromatography
[2] = target: T1, CXCR1 (Homo sapiens, UniProt P25024); assay: CXCR1-NanoLuc NanoBRET saturation binding in membranes; settings: result in words
T1 construct: expressed in transfected cells; membranes
T1 sequence (P25024 1-350): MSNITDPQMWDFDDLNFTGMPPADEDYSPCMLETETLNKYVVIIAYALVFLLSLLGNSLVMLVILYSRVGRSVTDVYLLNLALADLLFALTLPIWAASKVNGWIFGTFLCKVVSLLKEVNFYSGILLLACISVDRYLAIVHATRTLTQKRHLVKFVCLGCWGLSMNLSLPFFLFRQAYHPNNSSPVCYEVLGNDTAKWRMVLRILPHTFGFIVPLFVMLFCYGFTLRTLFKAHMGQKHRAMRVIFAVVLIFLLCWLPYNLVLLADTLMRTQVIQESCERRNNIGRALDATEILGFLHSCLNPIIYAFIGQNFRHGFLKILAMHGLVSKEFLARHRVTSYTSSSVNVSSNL
Description: NanoBRET assays were carried out in OptiPlate-384 white well microplates (product number: 6007290, PerkinElmer LAS Ltd., UK) and used 25 mM HEPES, 1% DMSO, 0.1 mg/mL Saponin, 0.2 mg Pluronic acid F127, 1 mM MgCl2 and 0.1% BSA (pH 7.4) assay buffer. Both saturation and competition assays employed 1 μg/well HEK 293 SNAP-CXCR2-NanoLuc or SNAP-CXCR1-NanoLuc cell membranes for characterization of fluorescent ligand binding and employed 100 nM or 10 μM R-navarixin (2) to define non-specific binding (NSB). […] Membranes were incubated with furimazine at a 1/660 dilution for 5 min prior to addition to the assay plate, allowing for equilibration of luminescence output. NanoBRET was monitored every 15 s for 60 min at 37 °C measuring Nanoluciferase output (450 nm) and BODIPY 630–650 output (630 nm [610-LP filter]), generating a BRET ratio (630 nm/450 nm), using a BMG PHERAstar FS (BMG Labtech). Collected data was converted to specific binding measurements through subtraction of NSB data and analyzed by endpoint saturation analysis, allowing determination of ligand dissociation constant (KD) through [drawing 1] 1

[3] = tested on: SNAP-tagged CXCR2-tsNanoLuc HEK293; assay: Live cell imaging of fluorescent ligand binding to SNAP-tagged CXCR2-tsNanoLuc HEK293; format: cell-based, human; settings: 1 μM 11a, 10 min at 37 °C, specific, displaced by 10 μM 2
Description: HEK 293 cells expressing SNAP-CXCR2-tsNanoLuc were seeded on black, clear bottom, poly-D-lysine-coated 96-well plates (Greiner 655097) at a density of 30,000 cells/well and allowed to grow overnight. Post-incubation, growth media were replaced with Hepes balances salt solution supplemented with 0.1% BSA (HBSS +0.1% BSA), 0.1 μM SNAP-surface AF488, 2 μg/mL Hoechst 33342 nuclear stain (H33342), and either HBSS +0.1% BSA or 10 μM (R)-navarixin (2).

Row | Structure (SMILES) | chemical stability [1] | CXCR1 specific binding [2] | fluorescent labelling of cells [3]
1 | CC[C@@H](Nc1c(Nc2cccc(C(=O)N(C)CCNC(=O)OCC3c4ccccc4-c4ccccc43)c2O)c(=O)c1=O)c1ccc(C)o1 [10b, (9H-Fluoren-9-yl)methyl(R)-(2-(2-hydroxy-N-methyl-3-((2-((1-(5-methylfuran-2-yl)propyl)amino)-3,4-dioxocyclobut-1-en-1-yl)amino)benzamido)ethyl)carbamate] | chemically unstable | – | –
2 | CC[C@@H](Nc1c(Nc2cccc(C(=O)NCCNC(=O)CCCCCNC(=O)COc3ccc(/C=C/C4=[N+]5C(=Cc6ccc(-c7cccs7)n6[B-]5(F)F)C=C4)cc3)c2O)c(=O)c1=O)c1ccc(C)o1 [11a, (R,E)-N-(2-(6-(2-(4-(2-(5,5-Difluoro-7-(thiophen-2-yl)-5H-4λ4,5λ4-dipyrrolo[1,2-c:2’,1’-f][1,3,2]diazaborinin-3-yl)vinyl)phenoxy)acetamido)hexanamido)ethyl)-2-hydroxy-3-((2-((1-(5-methylfuran-2-yl)propyl)amino)-3,4-dioxocyclobut-1-en-1-yl)amino)benzamide] | – | no CXCR1 specific binding | both cell surface and intracellular endosomal fluorescent labelling
3 | CC[C@@H](Nc1c(Nc2cccc(C(=O)NCCNC(=O)CNC(=O)CCCCCNC(=O)COc3ccc(/C=C/C4=[N+]5C(=Cc6ccc(-c7cccs7)n6[B-]5(F)F)C=C4)cc3)c2O)c(=O)c1=O)c1ccc(C)o1 [11c, (R,E)-N-(2-(2-(6-(2-(4-(2-(5,5-Difluoro-7-(thiophen-2-yl)-5H-4λ4,5λ4-dipyrrolo[1,2-c:2′,1′-f][1,3,2]diazaborinin-3-yl)vinyl)phenoxy)acetamido)hexanamido)acetamido)ethyl)-2-hydroxy-3-((2-((1-(5-methylfuran-2-yl)propyl)amino)-3,4-dioxocyclobut-1-en-1-yl)amino)benzamide] | – | no CXCR1 specific binding | –
4 | CC[C@@H](Nc1c(Nc2cccc(C(=O)NCCNC(=O)CCNC(=O)CCCCCNC(=O)COc3ccc(/C=C/C4=[N+]5C(=Cc6ccc(-c7cccs7)n6[B-]5(F)F)C=C4)cc3)c2O)c(=O)c1=O)c1ccc(C)o1 [11e, (R,E)-N-(2-(3-(6-(2-(4-(2-(5,5-Difluoro-7-(thiophen-2-yl)-5H-4λ4,5λ4-dipyrrolo[1,2-c:2′,1′-f][1,3,2]diazaborinin-3-yl)vinyl)phenoxy)acetamido)hexanamido)propanamido)ethyl)-2-hydroxy-3-((2-((1-(5-methylfuran-2-yl)propyl)amino)-3,4-dioxocyclobut-1-en-1-yl)amino)benzamide] | – | no CXCR1 specific binding | –
